Residues, ends and D or L forms follow the SMILES beside them.
Molecular target: T1, yDPP III (Saccharomyces cerevisiae, UniProt Q08225)
T1 construct: His6 (C); made in house; host or cells: E. coli
T1 sequence (Q08225 1-711): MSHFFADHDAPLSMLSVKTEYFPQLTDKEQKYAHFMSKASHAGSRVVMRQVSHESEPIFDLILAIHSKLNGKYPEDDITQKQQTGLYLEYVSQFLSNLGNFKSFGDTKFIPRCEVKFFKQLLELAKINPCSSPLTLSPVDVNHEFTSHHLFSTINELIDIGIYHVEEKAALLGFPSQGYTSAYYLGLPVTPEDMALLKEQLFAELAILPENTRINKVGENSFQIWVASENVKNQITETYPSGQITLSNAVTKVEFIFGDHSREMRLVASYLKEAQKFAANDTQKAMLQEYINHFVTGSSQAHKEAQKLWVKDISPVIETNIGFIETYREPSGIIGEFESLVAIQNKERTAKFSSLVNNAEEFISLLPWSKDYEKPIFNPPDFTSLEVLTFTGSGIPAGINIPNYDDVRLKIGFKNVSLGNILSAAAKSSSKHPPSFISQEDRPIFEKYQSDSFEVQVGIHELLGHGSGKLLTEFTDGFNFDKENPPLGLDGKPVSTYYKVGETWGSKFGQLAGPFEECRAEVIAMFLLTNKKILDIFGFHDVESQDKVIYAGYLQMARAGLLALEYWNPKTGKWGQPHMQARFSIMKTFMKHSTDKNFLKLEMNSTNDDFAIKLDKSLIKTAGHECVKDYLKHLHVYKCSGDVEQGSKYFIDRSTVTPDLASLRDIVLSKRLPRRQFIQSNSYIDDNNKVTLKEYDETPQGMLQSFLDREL
Assay: Differential HDX-MS, unliganded vs. tynorphin complex
Type: binding, yeast (Saccharomyces cerevisiae)
Conditions: yDPP III peptide p42 (407-422)
Method: In the first step of the HDX analysis, optimization of digestion conditions and establishing a list of peptic peptides for all DPP III orthologues was carried out. With non-deuterated sample, a 5 μL aliquot of protein stock (between 35–50 μM in 20 mM Tris, pH 7.4) was diluted 10 times by adding 45 μL of 20 mM Tris, pH 7.4 (H2O reaction buffer). Next, the sample was acidified by mixing with 10 μL of 2 M glycine buffer, pH 2.5 (H2O stop buffer). The sample was subjected to online pepsin digestion using a 2.1 mm × 30 mm immobilized pepsin resin column (Porozyme, ABI, Foster City, CA) with 200 μL min^−1 flow of 0.07% formic acid in water as a mobile phase. Digested peptides were passed directly to the 2.1 mm × 5 mm C18 trapping column (Acquity BEH C18 VanGuard precolumn, 1.7 μm resin, Waters, Milford, MA). […]
Separate hydrogen deuterium exchange experiments were carried out for six unliganded DPP III enzymes, human V412I mutant, and their tynorphin complexes. […] The reaction buffer was prepared using D2O (99.8% Armar Chemicals, Switzerland), in which the pH (uncorrected meter reading) was adjusted using DCl or NaOD (Sigma). […] Relative deuterium uptake values are calculated without correction for back exchange. […]

SMILES: CC(C)[C@H](N)C(=O)N[C@H](C(=O)N[C@@H](Cc1ccc(O)cc1)C(=O)N1CCC[C@H]1C(=O)N[C@@H](Cc1c[nH]c2ccccc12)C(=O)O)C(C)C [tynorphin] (H-VVYPW-OH)
- deuterium incorporation decrease, fast exchanging conformation: less than 1%
- deuterium incorporation decrease, slow exchanging conformation: more than 22%

— PMC9079729, “Conservation of the conformational dynamics and ligand binding within M49 enzyme family” (RSC Advances, 2018)
